Test results as given in PubChem BioAssay (NCI).
Several values for one entry are separate records, joined by “and”; a condition that tells them apart may be missing. Equal entries are not always repeated.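 Five concentrations, 48 hours, 96-well plates. Here, GI50 denotes the concentration required for 50% inhibition of growth. TGI: total growth inhibition.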

Tests used:
Test in all cases: NCI tumour cell line growth inhibition, 48 h
OVCAR-8 ovarian = system: OVCAR-8 ovarian
MDA-MB-231 breast = system: MDA-MB-231 breast
MCF7 breast = system: MCF7 breast
HOP-62 NSCLC = system: HOP-62 NSCLC
DU-145 prostate = system: DU-145 prostate
786-0 renal = system: 786-0 renal
EKVX NSCLC = system: EKVX NSCLC
SNB-19 CNS = system: SNB-19 CNS
OVCAR-3 ovarian = system: OVCAR-3 ovarian
KM12 colon = system: KM12 colon

SMILES | GI50 (OVCAR-8 ovarian) | TGI (OVCAR-8 ovarian) | GI50 (MDA-MB-231 breast) | TGI (MDA-MB-231 breast) | GI50 (MCF7 breast) | TGI (MCF7 breast) | GI50 (HOP-62 NSCLC) | TGI (HOP-62 NSCLC) | GI50 (DU-145 prostate) | TGI (DU-145 prostate) | GI50 (786-0 renal) | TGI (786-0 renal) | GI50 (EKVX NSCLC) | TGI (EKVX NSCLC) | GI50 (SNB-19 CNS) | TGI (SNB-19 CNS) | GI50 (OVCAR-3 ovarian) | TGI (OVCAR-3 ovarian) | GI50 (KM12 colon) | TGI (KM12 colon)
O=C(NCc1ccc(Cn2c(=O)sn(-c3ccccc3)c2=O)cc1)OCc1ccc2c(Br)cc(Br)c(O)c2n1 | 0.762 µM | 2.44 µM | 1.18 µM | 2.53 µM | 0.399 µM | 1.96 µM | 1.52 µM | 3.45 µM | 0.992 µM | 2.19 µM | 0.495 µM | 1.08 µM | 1.5 µM | 3.12 µM | 1.55 µM | 2.9 µM | 0.267 µM | 0.738 µM | 1.57 µM | 3.47 µM
COC(=O)C1=C(C)NC(C)=C(C(=O)OC)C1/C=C(Cl)/C=C/c1ccccc1 | 36 µM | > 100 µM | 17.9 µM | 36.7 µM | 24.4 µM | 78.5 µM | 20.1 µM | 38.5 µM | 18.4 µM | 36.7 µM | 25.9 µM | 70.5 µM | 23.5 µM | 96.4 µM | 37.7 µM | > 100 µM | 15.3 µM | 31.9 µM | 18.4 µM | 39.5 µM
COc1ccc(/C(C#N)=C/c2ccc(OC)c(OC)c2)cc1 |  | > 100 µM |  | > 100 µM |  | > 100 µM |  | > 100 µM |  | > 100 µM |  | > 100 µM |  | > 100 µM |  | > 100 µM |  | > 100 µM |  | > 100 µM
CCCCS(=O)(=O)CCC(N)C(=O)O (stereo not given) |  | > 100 µM |  | > 100 µM |  | > 100 µM |  | > 100 µM |  | > 100 µM |  | > 100 µM |  | > 100 µM |  | > 100 µM |  | > 100 µM |  | > 100 µM
COc1cc(O)c(C(=O)/C=C/c2ccc(O)cc2)c(O)c1[C@@H]1C[C@H](CCc2ccc(O)cc2)O[C@H](c2ccc(O)cc2)C1 | 3.77 µM | 29.1 µM | 2.26 µM | 6.32 µM | 3.08 µM | 8.85 µM | 3.17 µM | 11.2 µM | 3.22 µM | 10.9 µM | 2.47 µM | 7.1 µM | 4.35 µM | 15.8 µM | 3.58 µM | 13.3 µM | 4.18 µM | 21 µM | 2.51 µM | 6.64 µM
CCNC(=O)c1cc2c(-c3cc(C(C)(C)O)ccc3Oc3c(C)cc(F)cc3C)cn(C)c(=O)c2[nH]1 | 2.54 µM | 20.4 µM | 1.08 µM | 15.9 µM | 0.521 µM | 12.9 µM | 0.914 µM | 13.7 µM | 4.52 µM | 18.4 µM | 1.15 µM | 19.2 µM | 2.26 µM | 16.4 µM | 2.05 µM | 14.2 µM | 1.93 µM | 11.9 µM | 1.87 µM | 15.8 µM
COc1ccc(Cn2cc3c(c2-c2ccc(OC)cc2)CCc2cnoc2-3)cc1 | 0.621 µM | > 100 µM | 1.41 µM | > 53.7 µM | 0.389 µM | > 100 µM | 0.539 µM | > 100 µM | 0.35 µM | 2.71 µM | 0.658 µM | > 100 µM | 0.523 µM | > 100 µM | 0.679 µM | > 100 µM | 0.259 µM | 0.62 µM | 0.376 µM | 2.35 µM
Cc1cc(Cl)ccc1NC(=O)c1cc2ccccc2cc1O | 0.882 µM | > 100 µM | 1.01 µM | 25.5 µM | 1.57 µM | > 100 µM | 2.68 µM | > 100 µM | 1.15 µM | > 100 µM | 1.19 µM | > 100 µM | 2.61 µM | > 100 µM | 0.736 µM | > 100 µM | 0.369 µM | > 34.9 µM | 1.91 µM | > 44 µM
NC(=O)c1cc(-c2ccc(F)cc2)cc(-c2ccncc2)c1N | > 25 µM | > 25 µM | > 25 µM | > 25 µM | > 25 µM | > 25 µM | > 25 µM | > 25 µM | > 25 µM | > 25 µM | > 25 µM | > 25 µM | > 25 µM | > 25 µM | 24.3 µM | > 25 µM | > 25 µM | > 25 µM | > 25 µM | > 25 µM
Cc1occc1C(=S)Nc1ccc(Cl)c(C(=O)OC(C)C2CC2)c1 (stereo not given) |  | 43.2 µM |  | 45.7 µM |  | 57.3 µM |  | 57.7 µM |  | > 100 µM |  | 52.5 µM |  | 54.9 µM |  | 39 µM |  | 35.3 µM |  | 39.9 µM
C=C1CC/C=C(\C)C(=O)C[C@@H]2[C@@H]1CC2(C)C |  | 29.7 µM |  | 28.6 µM |  | 5.94 µM |  | 31.1 µM |  | 16.6 µM |  | 6.69 µM |  | 27.3 µM |  | 25.7 µM |  | 20.7 µM |  | 39.1 µM
N#CSCC1CC(O)(c2ccccc2)CC(c2ccc(F)cc2)O1 (stereo not given) | 2.02 µM | 4.37 µM | 1.97 µM | 4.2 µM | 2.64 µM | 8.33 µM | 1.99 µM | 3.61 µM | 1.56 µM | 3.45 µM | 1.61 µM | 3.27 µM | 1.94 µM | 5.43 µM | 4.14 µM | 13.7 µM | 1.45 µM | 2.76 µM | 1.63 µM | 3.07 µM
CC1(C)[C@@H](O[C@@H]2OC[C@@H](O[C@@H]3O[C@H](CO)[C@@H](O)[C@H](O)[C@H]3O[C@@H]3OC[C@@H](O)[C@H](O)[C@H]3O)[C@H](O)[C@H]2O[C@@H]2O[C@H](CO)[C@@H](O)[C@H](O)[C@H]2O)CC[C@]2(C)[C@H]3CC[C@]45OC[C@@]6(CC[C@](C)(C=O)C[C@H]64)[C@H](O)C[C@@]5(C)[C@]3(C)CC[C@@H]12 | 1.07 µM | 2.57 µM | 0.915 µM | 1.9 µM | 0.972 µM | 2.43 µM | 0.898 µM | 1.79 µM | 1.09 µM | 2.33 µM | 2.84 µM | 5.77 µM | 0.945 µM | 1.96 µM | 0.872 µM | 1.77 µM | 1.01 µM | 2.06 µM | 1.21 µM | 3.17 µM
O=C(O)c1cccc(N=Nc2c(S(=O)(=O)O)ccc3c2C(=O)c2ccccc2C3=O)c1O |  | > 100 µM |  | > 100 µM |  | > 100 µM |  | > 100 µM |  | > 100 µM |  | > 100 µM |  | > 100 µM |  | > 100 µM |  | > 100 µM |  | > 100 µM
CC(=Nc1ccccc1)C1=C(O)C(Cc2ccccc2)NC1=O (stereo not given) | 0.0945 µM | > 100 µM | 0.224 µM | > 100 µM | 0.0367 µM | > 100 µM | 0.0435 µM |  | 0.133 µM | 1.29 µM | 0.0586 µM |  | 0.0798 µM | > 100 µM | 0.0765 µM | > 100 µM | 0.0237 µM | 0.0535 µM | 0.0278 µM | 0.266 µM
c1cc(CNCCN2CCNCC2)ccn1 |  | > 100 µM |  | > 100 µM |  | > 100 µM |  | > 100 µM |  | > 100 µM |  | > 100 µM |  | > 100 µM |  | > 100 µM |  | > 100 µM |  | > 100 µM
O=C(/C=C/c1cc([N+](=O)[O-])ccc1Cl)c1ccccc1 | 12.2 µM | 33.5 µM | 19.3 µM | 70.7 µM | 2.76 µM | 17.4 µM | 25 µM | 63.5 µM | 14.7 µM | 31.2 µM | 15.2 µM | 32 µM | 13 µM | 43.2 µM | 13.3 µM | 28.3 µM | 5.08 µM | 16.1 µM | 1.8 µM | 3.59 µM
CC(=O)O[C@]1(C(C)=O)CC[C@H]2[C@@H]3C=C(C)C4=CC(=O)CC[C@]4(C)[C@H]3CC[C@@]21C | > 75.4 µM | > 100 µM | > 100 µM | > 100 µM | > 100 µM | > 100 µM | > 100 µM | > 100 µM | > 100 µM | > 100 µM | > 80.7 µM | > 100 µM | 21 µM | > 100 µM | > 82.9 µM | > 100 µM | > 100 µM | > 100 µM | > 100 µM | > 100 µM
O=C(NP(=O)(N1CC1)N1CC1)c1cc(I)ccc1I |  | > 94.4 µM |  | > 100 µM |  | > 100 µM |  | > 71.5 µM |  | > 100 µM |  | > 100 µM |  | > 100 µM |  | > 100 µM |  | 86.6 µM |  | > 100 µM
COc1cc(C2=C(C#Cc3ccccc3)COC2=O)cc(OC)c1OC | 5.37 µM | > 45.4 µM | 0.492 µM | 2.95 µM | 0.193 µM | > 100 µM | 0.706 µM | 2.61 µM | 0.293 µM | 18 µM | < 0.0224 µM |  | 18.2 µM | 38.1 µM | 7.27 µM | > 76 µM | 2.1 µM | 16.8 µM | 1.87 µM | 10.5 µM
CCCCCCCCCCCC1CCCC(C)N1 (stereo not given) | 13.8 µM | 40.1 µM and 167 µM | 3.99 µM | 18 µM | 3.24 µM |  | 14.8 µM | 46 µM and 107 µM | 12.5 µM | 26.1 µM | 13.7 µM | 42.9 µM | 12.2 µM | 26.3 µM and 119 µM | 11.4 µM | 25.3 µM and 155 µM | 12 µM | 28.7 µM and 121 µM | 2.95 µM | 
Nc1nc(-c2ccccc2)nc2c1[n+]([O-])c1ccccc1[n+]2[O-] |  | > 100 µM |  | > 100 µM |  | > 100 µM |  | > 100 µM |  | > 100 µM |  | > 100 µM |  | > 100 µM |  | > 100 µM |  | > 100 µM |  | > 100 µM
